Test results: patent US4292319A, “Antiphlogistic pharmaceutical compositions and method of use” (Boehringer Ingelheim GmbH, priority 1977, dated 1981)
Like-named read-outs stand apart in the source and are kept apart here.

Tests used:
[1] = test system: kaolin-induced edema of the rat's hind paw; experiment: Test for antiphlogistic effect against the kaolin-induced edema of the rat's hind paw; type: in vivo, rat (Chbb:THOM); settings: oral, rat; for ED35: Rattus norvegicus, po, 5 h, kaolin edema, read-out: ED35; for Thickness of the paw (mean): 5 h after kaolin
Protocol: (2) Test for antiphlogistic effect against the kaolin-induced edema of the rat's hind paw (tested substances: A, B, C and D)
The test was carried out on male Chbb:THOM-rats with a body weight between 125 and 150 gm. According to HILLEBRECHT [Arzneimittel-Forsch. 4, 607 (1954)], a subplantary injection of 0.05 ml of a 10% suspension of kaolin in an aqueous 0.85% sodium chloride solution in the hind paw was used for the provocation of the kaolin edema. The other hind paw was subplantarily injected with the same volume of an aqueous 0.85% sodium chloride solution.
The measurement of the thickness of the paws was carried out using the technique of DOEPFNER and […] [Int. Arch. Allergy appl. Immunol. 12, 89 (1958)] by way of the determination of the maximum sagittal diameter, using a measuring device with constant pressure, before and 5 hours after the provocation of the edema.
The test substances (the non-steroidal antiphlogistics or the mixture of non-steroidal antiphlogistics with pirenzepine dihydrochloride) were administered 30 minutes before provocation of the edema as a trituration in 1% tylose (1 ml/[…]) by way of an esophageal tube.
The diameter of the paw measured before the beginning of the test as well as the increase in diameter of the other paw caused by injection were subtracted from the diameter of the kaolin-treated paw, and this difference, being the real swelling value, was used for the further calculations.
(§1) From the swelling values obtained by administration of different dosages of non-steroidal antiphlogistics with or without the addition of pirenzepine dihydrochloride, using a linear regression analysis according to LINDNER [Statistische Methoden, 4th Ed., pages 148-162, Birkhauser, Basel, Switzerland (1964)], the ED35 values of the antiphlogistics were calculated with the confidence limits according to FIELLER [Quart. J. Pharm. Pharmacol. 17, 117 (1944)], the ED35 being the dosage which reduces the swelling of the paws by 35% in comparison to the control animals.

stomach of the rat = experiment: Test for ulcerogenic effect on the stomach of the rat; type: in vivo, rat (Chbb:THOM); settings: oral, 3 subsequent days
Protocol: (§2) (1) Test for ulcerogenic effect on the stomach of the rat
(§3) The test was carried out on male and female (1:1) Chbb:THOM-rats with a body weight between 130 to 150 gm at the beginning of the study.
(§4) The test substances (non-steroidal anti-phlogistics or mixtures of these antiphlogistics with pirenzepine dihydrochloride) were administered as triturations in 1% tylose (1 ml/100 gm animal) by way of an esophageal tube once a day on three successive days.
(§5) Four hours after the last administration (i.e. on the 3rd day) the animals were killed by an over-dose of ether. The stomachs wer dissected, cut along the great curvature and washed under flowing water for subsequent macroscopic evaluation.

[2] = as above; type: in vivo, rat (Chbb:THOM); settings: in vivo, po
Protocol: as §2, §3, §4, §5

gastro-intestinal tract = settings: cited from earlier work
[3] = test system: carrageenin-induced edema of the hind paw of the rat; experiment: Test for antiphlogistic effect against the carrageenin-induced edema of the hind paw of the rat; type: in vivo; settings: rat; for ED35: Rattus norvegicus, po, 3 h, carrageenin edema; for Thickness of the paw (mean): oral, 3 h after carrageenin
Protocol: The test was carried out in analogy to the above test for the kaolin-induced edema. However, the edema was induced according to the method of WINTER et al. [J. Pharmacol. 141, 369 (1963)] by subplantary injection of 0.05 ml of a 1% solution of carrageenin in an aqueous 0.85% solution of sodium chloride. […] Three hours after the provocation of the edema the measurement which provided the basis for the evaluation of an anti-exudative effect was carried out.
as §1

[4] = antiphlogistic 12 mgm/kg, without A
[5] = antiphlogistic 25 mgm/kg, without A
[6] = antiphlogistic 50 mgm/kg, without A
[7] = antiphlogistic 50 mgm/kg + A 400 mgm/kg
[8] = antiphlogistic 100 mgm/kg + A 400 mgm/kg
[9] = antiphlogistic 100 mgm/kg, without A
[10] = antiphlogistic 200 mgm/kg, without A

OCCCCc1ccc(-c2ccccc2)cc1 [D, 4-(4-biphenylyl)-butanol]
ED35 ([1]; with A 100 mgm/kg): 12.1 mg/kg
ED35 ([1]; without A): 11.2 mg/kg
Thickness of the paw (mean) ([1]; antiphlogistic 6.25 mgm/kg + A 100 mgm/kg): 215.5 10^-2 mm
Thickness of the paw (mean) ([1]; antiphlogistic 6.25 mgm/kg, without A): 214.3 10^-2 mm
Thickness of the paw (mean) ([1]; antiphlogistic 12 mgm/kg + A 100 mgm/kg): 180.4 10^-2 mm
Thickness of the paw (mean) [1, 4]: 165.0 10^-2 mm
Thickness of the paw (mean) ([1]; antiphlogistic 25 mgm/kg + A 100 mgm/kg): 141.0 10^-2 mm
Thickness of the paw (mean) [1, 5]: 124.0 10^-2 mm
Ratio of animals with ulcers (stomach of the rat; antiphlogistic 28.1 mgm/kg, without A): 4/17
Ratio of animals with ulcers (stomach of the rat; antiphlogistic 37.5 mgm/kg, without A): 5/17
Ratio of animals with ulcers (stomach of the rat; antiphlogistic 50.0 mgm/kg + A 50 mgm/kg): 1/16
Ratio of animals with ulcers (stomach of the rat; antiphlogistic 50 mgm/kg + A 100 mgm/kg): 2/16
Ratio of animals with ulcers (stomach of the rat; [6]): 9/17
Ratio of animals with ulcers (stomach of the rat; antiphlogistic 67.5 mgm/kg + A 50 mgm/kg): 6/16
Ratio of animals with ulcers (stomach of the rat; antiphlogistic 67.5 mgm/kg + A 100 mgm/kg): 5/15
Ratio of animals with ulcers (stomach of the rat; antiphlogistic 67.5 mgm/kg, without A): 15/17
Ratio of animals with ulcers (stomach of the rat; antiphlogistic 91.1 mgm/kg + A 50 mgm/kg): 11/14
Ratio of animals with ulcers (stomach of the rat; antiphlogistic 91.1 mgm/kg + A 100 mgm/kg): 7/15
Ratio of animals with ulcers (stomach of the rat; antiphlogistic 123.0 mgm/kg + A 50 mgm/kg): 13/14
Ratio of animals with ulcers (stomach of the rat; antiphlogistic 123.0 mgm/kg + A 100 mgm/kg): 10/13
TD50 ([2]; ED50-ulcer): 44.5 mg/kg

CCCCC1C(=O)N(c2ccccc2)N(c2ccccc2)C1=O [G, 4-butyl-1,2-diphenyl-3,5-pyrazolidinedione]
gastro-intestinal incompatabilities encountered, share of all cases (gastro-intestinal tract; human, in vivo): 25-37%
Ratio of animals with ulcers (stomach of the rat; antiphlogistic 50 mgm/kg + A 200 mgm/kg): 2/20
Ratio of animals with ulcers (stomach of the rat; [7]): 0/20
Ratio of animals with ulcers (stomach of the rat; [6]): 4/20
Ratio of animals with ulcers (stomach of the rat; antiphlogistic 71 mgm/kg + A 200 mgm/kg): 8/20
Ratio of animals with ulcers (stomach of the rat; antiphlogistic 71 mgm/kg + A 400 mgm/kg): 0/20
Ratio of animals with ulcers (stomach of the rat; antiphlogistic 100 mgm/kg + A 200 mgm/kg): 15/20
Ratio of animals with ulcers (stomach of the rat; [8]): 6/20
Ratio of animals with ulcers (stomach of the rat; [9]): 14/20
Ratio of animals with ulcers (stomach of the rat; antiphlogistic 200 mgm/kg + A 200 mgm/kg): 20/20
Ratio of animals with ulcers (stomach of the rat; antiphlogistic 200 mgm/kg + A 400 mgm/kg): 14/20
Ratio of animals with ulcers (stomach of the rat; [10]): 20/20
Ratio of animals with ulcers (stomach of the rat; antiphlogistic 400 mgm/kg + A 400 mgm/kg): 18/19
TD50 ([2]; ED50-ulcer): 69 mg/kg
ED35 ([3]; with A 400 mgm/kg): 45.7 mg/kg
ED35 ([3]; without A): 51.7 mg/kg
Thickness of the paw (mean) ([3]; antiphlogistic 25 mgm/kg + A 400 mgm/kg): 205.0 10^-2 mm
Thickness of the paw (mean) [3, 5]: 216.8 10^-2 mm
Thickness of the paw (mean) [3, 7]: 173.5 10^-2 mm
Thickness of the paw (mean) [3, 6]: 175.8 10^-2 mm
Thickness of the paw (mean) [3, 8]: 138.9 10^-2 mm
Thickness of the paw (mean) [3, 9]: 153.8 10^-2 mm
Thickness of the paw (mean) [3, 10]: 125.0 10^-2 mm

CCCC1C(=O)N2C(N(C)C)=Nc3ccc(C)cc3N2C1=O (stereo not drawn) [azapropazone, 5-dimethylamino-9-methyl-2-propyl-1H-pyrazolo[1,2-a][1,2,4]benzotriazine-1,3(2H)-dione]
gastro-intestinal incompatabilities encountered, share of all cases (gastro-intestinal tract; clinical, depending upon experience, patients and compound primarily used): 25-37%

O=C([O-])Cc1ccccc1Nc1c(Cl)cccc1Cl.[Na+] [E, sodium [o-(2,6-dichloro-anilino)-phenyl]acetate]
Ratio of animals with ulcers (stomach of the rat; antiphlogistic 2 mgm/kg + A 200 mgm/kg): 3/20
Ratio of animals with ulcers (stomach of the rat; antiphlogistic 2 mgm/kg + A 400 mgm/kg): 1/20
Ratio of animals with ulcers (stomach of the rat; antiphlogistic 2 mgm/kg, without A): 5/20
Ratio of animals with ulcers (stomach of the rat; antiphlogistic 4 mgm/kg + A 200 mgm/kg): 9/20
Ratio of animals with ulcers (stomach of the rat; antiphlogistic 4 mgm/kg + A 400 mgm/kg): 7/20
Ratio of animals with ulcers (stomach of the rat; antiphlogistic 4 mgm/kg, without A): 14/20
Ratio of animals with ulcers (stomach of the rat; antiphlogistic 8 mgm/kg + A 200 mgm/kg): 17/19
Ratio of animals with ulcers (stomach of the rat; antiphlogistic 8 mgm/kg + A 400 mgm/kg): 13/20
Ratio of animals with ulcers (stomach of the rat; antiphlogistic 8 mgm/kg, without A): 19/20
Ratio of animals with ulcers (stomach of the rat; antiphlogistic 16 mgm/kg + A 200 mgm/kg): 20/20
Ratio of animals with ulcers (stomach of the rat; antiphlogistic 16 mgm/kg + A 400 mgm/kg): 19/20
TD50 ([2]; with A 200 mgm/kg, oral, 3 subsequent days, read-out: ED50-ulcer): 4.05 mg/kg
TD50 ([2]; with A 400 mgm/kg, oral, 3 subsequent days, read-out: ED50-ulcer): 5.63 mg/kg
TD50 ([2]; without A, oral, 3 subsequent days, read-out: ED50-ulcer): 2.95 mg/kg
ED35 ([3]; with A 400 mgm/kg): 4.3 mg/kg
ED35 ([3]; without A): 5 mg/kg
Thickness of the paw (mean) ([3]; antiphlogistic 1.5 mgm/kg + A 400 mgm/kg): 209.5 10^-2 mm
Thickness of the paw (mean) ([3]; antiphlogistic 1.5 mgm/kg, without A): 209.5 10^-2 mm
Thickness of the paw (mean) ([3]; antiphlogistic 3.0 mgm/kg + A 400 mgm/kg): 181.5 10^-2 mm
Thickness of the paw (mean) ([3]; antiphlogistic 3 mgm/kg, without A): 188.5 10^-2 mm
Thickness of the paw (mean) ([3]; antiphlogistic 6.0 mgm/kg + A 400 mgm/kg): 162.5 10^-2 mm
Thickness of the paw (mean) ([3]; antiphlogistic 6 mgm/kg, without A): 170.0 10^-2 mm
Thickness of the paw (mean) ([3]; antiphlogistic 12.0 mgm/kg + A 400 mgm/kg): 148.5 10^-2 mm
Thickness of the paw (mean) [3, 4]: 154.0 10^-2 mm
